According to article PMC10675077, “Antimicrobial Properties of New Polyamines Conjugated with Oxygen-Containing Aromatic Functional Groups” (Molecules, 2023):
Values after ≈ are worked out from the molar mass of the structure shown. Where two headings read alike, the source gives them in different places.

Assays:
[1] = test system: Saccharomyces cerevisiae BY4741/YEplac195; assay: microbe, parasite or virus in culture; type: cell-based; conditions: Saccharomyces cerevisiae, 24 h, read-out: MIC, Yeast, BY4741/ YEplac195
Description: (§1) The microorganisms used for the susceptibility tests were the bacteria Escherichia coli JM101 and Staphylococcus aureus BHI, and the yeast Saccharomyces cerevisiae strains BY4741 (MAT a his3Δ1 leu2Δ0 met15Δ0 ura3Δ0 (EUROSCARF)) carrying YEplac195 (from EUROSCARF) or YEPlac195-PDR5 (provided by Ayse Banu Demir, Izmir University of Economics, Turkey) plasmids.
(§2) Bacterial strains were usually maintained and grown in an LB medium (0.5% (w/v) yeast extract, 1% (w/v) bactotryptone, and 1% (w/v) NaCl) at 37 °C. For MIC (minimal inhibitory concentration) and MMC (minimal microbicidal concentration) assays, and for the determination of synergies, overnight growth was carried out in 2% (w/v) bactopeptone (BP), and then the cultures were diluted and incubated for several hours in 2% (w/v) BP for ensuring logarithmic growth. Yeast strains were grown in an SC-ura medium (0.17% (w/v) yeast nitrogen base without amino acids and ammonium sulphate, 0.2% (w/v) drop-out without uracil, 0.5% (w/v) (NH4)2SO4, and 2% (w/v) glucose) at 30 °C. Liquid cultures were incubated with shaking (200 rpm). Solid media also contained 2% (w/v) agar.
(§3) The determination of the MIC for yeast strains was carried out following a similar procedure to that of the polyamines and antifungal reference agents: Serial dilutions of each one in phosphate buffer (20 mM, pH 7.4, 0.5 mL) were prepared and mixed with a suspension of yeast cells (OD600 0.04 in SC-ura 2X (VWR, Atlanta, GA, USA), 0.5 mL). […] Experiments were carried out at least three times in all cases.

[2] = test system: Saccharomyces cerevisiae BY4741/YEplac195-PDR5; assay: microbe, parasite or virus in culture; type: cell-based; conditions: Saccharomyces cerevisiae, 24 h, read-out: MIC, Yeast, BY4741/ PDR5
Description: as §1, §2, §3

[3] = test system: Staphylococcus aureus BHI; assay: MIC, microdilution in culture medium, S. aureus; type: cell-based; conditions: Staphylococcus aureus, 20 h, read-out: MIC, Bacteria, S. aureus BHI
Description: as §1, §2
(§4) For the analysis of the antimicrobial activity, the strategies and indications of Cushnie et al. were considered. The standardised method of microdilution in a culture medium was followed to determine the MIC [55]. In bacterial strains, serial dilutions of the compounds to be tested and the control antibiotics were prepared in phosphate buffer (20 mM, pH 7.4, 0.5 mL) and were mixed with a suspension of bacterial cells in a logarithmic growth phase (in 1% BP, 0.5 mL). The final OD600 of the whole solutions were 0.004 and 0.008 for E. coli and S. aureus cultures, respectively. After 20 h of incubation at 37 °C with shaking, the MIC was determined as the lowest concentration of each compound in which no visible bacterial growth was observed.

Escherichia coli JM101 = assay: MIC, microdilution in culture medium, E. coli; type: cell-based; conditions: Escherichia coli, read-out: MIC, Bacteria, E. coli JM101
Description: as §1, §2, §4

[4] = test system: Yeast (S. cerevisiae strains); assay: MIC, yeast (strain not specified); type: cell-based, Saccharomyces cerevisiae; conditions: Saccharomyces cerevisiae; yeast strain not specified (Tables 5 and 10); read-out: MIC Yeast
Experimental: as §3

E. coli JM101 = assay: Minimal bactericidal concentration, E. coli; type: cell-based, Escherichia coli; conditions: Escherichia coli, JM101; overnight incubation, plating on LB; bacteriostatic if growth at 4 times the MIC
Experimental: (§5) Once the MIC was known, the samples were prepared as described in the previous section with polyamine concentrations corresponding to the MIC and half, double, and four times its value. After overnight incubation with the microorganisms, 30 μL of a ten-fold dilution of each one was spread in LB (in the case of bacterial strains) or SC-ura (for yeast strains) plates. They were incubated for 20 h at 37 °C (bacteria) or 48 h at 30 °C (yeasts), and the level of growth was determined. […] Experiments were carried out at least three times.

[5] = Cytotoxicity, flow cytometry viability assay with propidium iodide; type: cell-based, human; conditions: human, Jurkat cells (human lymphocytic leukaemia, ATCC TIB-152), 24 h treatment, average of three experiments, read-out: IC50, cytotoxicity on the human Jurkat cell line
Experimental: The cytotoxicity of the compounds was assessed via flow cytometry with a viability assay using propidium iodide (PI), a DNA-binding fluorescent probe not permeant to live cells, which is commonly used to detect dead cells in a population. The human lymphocytic leukaemia Jurkat cell line (ATCC TIB-152) was obtained from the American Type Cell Culture (Sigma-Aldrich) and grown in suspension in an RPMI 1640 medium (Thermo Fisher Scientific, Waltham, MA, USA) supplemented with L-glutamine, antibiotics, and 10% heat-inactivated foetal calf serum (FCS, Thermo Fisher Scientific, Waltham, MA, USA). For the viability assay, cells were seeded in plastic 96-well plates at […] in an RPMI 1640 medium supplemented with 5% FCS. The cells were treated for 24 h with a range of concentrations of the test compounds or with the same volume of phosphate buffer (PBS) in control wells. After incubation, cell suspensions were washed, resuspended in 400 μL fresh medium, and incubated for 5 min at room temperature in the dark with 3.75 μM PI (Sigma-Aldrich). Cell viability was determined via flow cytometry using a Gallios flow cytometer (Beckman Coulter). PI fluorescence was excited with an argon-ion laser at 488 nm and collected through a 620/630 nm band-pass emission. Cellular events were discriminated from debris using forward scatter (FS) and side scatter (SS) signals. Cell aggregates were excluded from analysis based on FS-integral and FS-peak. The gates applied for population discrimination were set manually based on control samples. For each sample, 10,000 events were collected. For further analysis, the cytometric data were exported to Kaluza 2.1 software (Beckman Coulter, Brea, CA, USA). Dead cells were identified and quantified as PI-positive events. The cytotoxic potency of test compounds was quantified using their IC50 values, i.e., the compound concentration at which cell viability is inhibited by 50%, as calculated via curve fitting and determined with the correlation coefficient (R2) using GraphPad Prism 9.0 software. Experiments were carried out in triplicate.

[6] = Potentiometric titrations in water (protonation constants); type: physicochemical; conditions: for log β (cumulative protonation constant): calculated as log β = ∑j log KHjL; for n, average number of positive charges at pH 7.4: calculated from protonation constants
Experimental: The potentiometric titrations were carried out at 298.1 ± 0.1 K using NaCl 0.15 M as a supporting electrolyte. The experimental procedure (burette, potentiometer, cell, stirrer, microcomputer, etc.) has been fully described elsewhere. The acquisition of the EMF data was performed with the computer program PASAT [50]. The reference electrode was a Ag/AgCl electrode in a saturated KCl solution. The glass electrode was calibrated as a hydrogen-ion concentration probe via the titration of previously standardised amounts of HCl with CO2-free NaOH solutions and the equivalent point determined using the Gran method, which provides the standard potential, E^θ′, and the ionic product of water (pKw = 13.73(1)).
The computer program […] was used to calculate the protonation constants. The pH range investigated was 2.5–11.0, and the concentration of the ligands ranged from 5 × 10^−4 to 5 × 10^−[…]. The different titration curves for each system (at least two) were treated either as a single set or as separated curves without significant variations in the values of the stability constants. Finally, the sets of data were merged and treated simultaneously to give the final stability constants.

S. aureus BHI = assay: Minimal bactericidal concentration, S. aureus; type: cell-based, Staphylococcus aureus; conditions: Staphylococcus aureus; overnight incubation, plating on LB
Experimental: as §5

[7] = 37 °C, average of at least three experiments
[8] = JM101, 20 h, 37 °C, average of at least three experiments
[9] = 30 °C, average of at least three experiments
[10] = 298 K, 0.15 mol/dm^3 NaCl, error in last figure in parentheses

| Compound | MIC [2] [µg/mL] | MIC [3, 7] [µg/mL] | MIC (Escherichia coli JM101; [8]) [µg/mL] | MIC [1, 9] [µg/mL] | other results |
| --- | --- | --- | --- | --- | --- |
| c1ccc2c(c1)OCO2 [1,3-Benzodioxole, reference compound] | > 500 | – | – | – | MIC [1]: > 500 µg/mL; MIC [3]: > 500 µg/mL; MIC (Escherichia coli JM101; JM101, 20 h): > 500 µg/mL |
| O=C(O)c1cn(C2CC2)c2cc(N3CCNCC3)c(F)cc2c1=O [Ciprofloxacin, reference compound] | – | 0.1 | 0.04 | – | – |
| c1cc2c(cc1CNCCCCNCCCNCc1ccc3c(c1)OCO3)OCO2 [Compound 1a, N^1-(benzo[d][1,3]dioxol-5-ylmethyl)-N^4-(3-((benzo[d][1,3]dioxol-5-ylmethyl)amino)propyl)butane-1,4-diamine] | > 400 | 150 | 50 | > 400 | MIC [4]: > 400 µg/mL; MBC (E. coli JM101): 100 µg/mL (≈ 242 µM); IC50 at 24 h [5]: 11.4 µg/mL (≈ 27.6 µM); Stepwise protonation constant (log K), H2L + H ⇄ H3L [6, 10]: 7.699 (2); Stepwise protonation constant (log K), L + H ⇄ HL [6, 10]: 10.433 (2); Stepwise protonation constant (log K), LH + H ⇄ H2L [6, 10]: 8.964 (2); log β (cumulative protonation constant) ([6]; 298 K, 0.15 mol/dm^3 NaCl): 27.09; n, average number of positive charges at pH 7.4 [6]: 2.7 |
| NCCCCNCCCN [Compound 1b, spermidine, reference compound] | > 400 | > 400 | 400 | > 400 | – |
| c1cc2c(cc1CNCCCNCCCCNCCCNCc1ccc3c(c1)OCO3)OCO2 [Compound 2a, N^1,N^1′-(butane-1,4-diyl)bis(N^3-(benzo[d][1,3]dioxol-5-ylmethyl)propane-1,3-diamine)] | 250 | 50 | 10 | 250 | MBC (S. aureus BHI): 100 µg/mL (≈ 212 µM); MIC [4]: 250 µg/mL (≈ 531 µM); MBC (E. coli JM101): 20 µg/mL (≈ 42.5 µM); IC50 at 24 h [5]: 8.8 µg/mL (≈ 18.7 µM); Stepwise protonation constant (log K), H2L + H ⇄ H3L [6, 10]: 8.245 (7); Stepwise protonation constant (log K), H3L + H ⇄ H4L [6, 10]: 7.41 (1); Stepwise protonation constant (log K), L + H ⇄ HL [6, 10]: 10.81 (3); Stepwise protonation constant (log K), LH + H ⇄ H2L [6, 10]: 9.481 (8); log β (cumulative protonation constant) ([6]; 298 K, 0.15 mol/dm^3 NaCl): 35.94; n, average number of positive charges at pH 7.4 [6]: 3.4 |
| NCCCNCCCCNCCCN [Compound 2b, spermine, reference compound] | > 400 | 400 | 100 | – | MIC [1]: > 400 µg/mL |
| c1cc2c(cc1CNCCN(CCNCc1ccc3c(c1)OCO3)CCNCc1ccc3c(c1)OCO3)OCO2 [Compound 3a, N^1-(benzo[d][1,3]dioxol-5-ylmethyl)-N^2,N^2-bis(2-((benzo[d][1,3]dioxol-5-ylmethyl)amino)ethyl)ethane-1,2-diamine] | > 400 | 15 | 25 | > 400 | MBC (S. aureus BHI): 30 µg/mL (≈ 54.7 µM); MIC [4]: > 400 µg/mL; MBC (E. coli JM101): 50 µg/mL (≈ 91.1 µM); IC50 at 24 h [5]: 1.86 µg/mL (≈ 3.39 µM); Stepwise protonation constant (log K), H2L + H ⇄ H3L [6, 10]: 6.93 (3); Stepwise protonation constant (log K), L + H ⇄ HL [6, 10]: 9.12 (2); Stepwise protonation constant (log K), LH + H ⇄ H2L [6, 10]: 8.35 (3); n, average number of positive charges at pH 7.4 [6]: 2.1 |
| NCCN(CCN)CCN [Compound 3b, reference compound] | > 400 | 400 | 250 | > 400 | – |
| NCCCNCCN(CCNCCCN)CCNCCCN [Compound 4b] | > 400 | 250 | 400 | > 400 | – |
| C[C@@H]1C[C@@H]([C@H](O)CC2CC(=O)NC(=O)C2)C(=O)[C@@H](C)C1 [Cycloheximide, reference compound] | 0.5 | – | – | – | MIC [1]: 0.5 µg/mL |
| CNC(C)C1CCC(N)C(OC2C(N)CC(N)C(OC3OCC(C)(O)C(NC)C3O)C2O)O1 (stereo not shown) [Gentamicin, reference compound] | – | 0.04 | 0.02 | – | – |
